Measurements as given in PubChem BioAssay AID194 (DTP/NCI, 2004).
Several values for one entry are separate records, joined by “and”; a condition that tells them apart may be missing. Identical values can stand only once. Records with an inconclusive call do not appear.

Test system: BDF1 mice, B16 melanoma s.c., survival/tumor T/C
Experiment: NCI In Vivo Anticancer Drug Screen. Data for tumor model B16 Melanoma (subcutaneous) in B6D2F1 (BDF1) mice
Experimental: The antitumor activity of compounds was measured in mice bearing transplantable tumors. Survival or tumor size were measured and the results are expressed as the measurement made in the treated group (T) divided by the measurement made in the vehicle treated control group (C). The tumor model used in this assay is B16 Melanoma (subcutaneous) in B6D2F1 (BDF1) mice

[1] = endpoint: median survival time, dose: 50.0 mg/kg/injection, schedule: Q01DX009 (ip), vehicle: Klucel (hydroxypropylcellulose) (HPC), higher = longer survival

Question: How did the T/C (endpoint: median survival time, dose: 67.0 mg/kg/injection, schedule: Q01DX009 (ip), vehicle: water, higher = longer survival) turn out when `CNc1nc(N(C)C)nc(N(C)C)n1` was run?
Answer: 112 % of control

Question: And the T/C (endpoint: median survival time, dose: 100.0 mg/kg/injection, schedule: Q04DX003 (ip), vehicle: water, higher = longer survival)?
Answer: 96 % of control

Question: What about the T/C (endpoint: median survival time, dose: 150.0 mg/kg/injection, schedule: Q04DX003 (ip), vehicle: water, higher = longer survival) of the same compound?
Answer: 95 % of control

Question: And the T/C (endpoint: median survival time, dose: 225.0 mg/kg/injection, schedule: Q04DX003 (ip), vehicle: water, higher = longer survival)?
Answer: 90 % of control

Question: `COc1ccc(CCN2C(=O)CSC2=S)cc1OC` was tested. Which T/C (endpoint: median survival time, dose: 25.0 mg/kg/injection, schedule: Q01DX009 (ip), vehicle: Klucel (hydroxypropylcellulose) (HPC), higher = longer survival) did it give?
Answer: 120 % of control

Question: And the T/C [1]?
Answer: 123 % of control

Question: And the T/C (endpoint: median survival time, dose: 100.0 mg/kg/injection, schedule: Q01DX009 (ip), vehicle: Klucel (hydroxypropylcellulose) (HPC), higher = longer survival)?
Answer: 116 % of control

Question: Which results are given for `O=NN(CCCl)C(=O)NCCCl`?
Answer: T/C (endpoint: median survival time, dose: 0.5 mg/kg/injection, schedule: Q01DX009 (ip), vehicle: saline, higher = longer survival): 100 % of control; T/C (endpoint: median survival time, dose: 1.0 mg/kg/injection, schedule: Q01DX009 (ip), vehicle: saline, higher = longer survival): 106 % of control; T/C (endpoint: median survival time, dose: 1.5 mg/kg/injection, schedule: Q02DX009 (ip), vehicle: saline + alcohol, higher = longer survival): 151 % of control; T/C (endpoint: median survival time, dose: 2.0 mg/kg/injection, schedule: Q01DX009 (ip), vehicle: saline, higher = longer survival): 117 % of control; T/C (endpoint: median survival time, dose: 3.11 mg/kg/injection, schedule: Q01DX007 (ip), vehicle: Klucel (hydroxypropylcellulose) (HPC), higher = longer survival): 117 % of control; T/C (endpoint: median survival time, dose: 4.0 mg/kg/injection, schedule: Q01DX009 (ip), vehicle: saline, higher = longer survival): 184 % of control; T/C (endpoint: median survival time, dose: 8.0 mg/kg/injection, schedule: Q01DX009 (ip), vehicle: saline, higher = longer survival): 167 % of control; T/C (endpoint: median survival time, dose: 14.4 mg/kg/injection, schedule: Q01DX007 (ip), vehicle: Klucel (hydroxypropylcellulose) (HPC), higher = longer survival): 121 % of control

Question: Which results are given for `C[C@]12C=CC(=O)C=C1CC[C@@H]1[C@@H]2C(=O)C[C@@]2(C)[C@H]1CC[C@]2(O)C(=O)CO`?
Answer: T/C [1]: 95 % of control and 123 % of control; T/C (endpoint: median survival time, dose: 50.0 mg/kg/injection, schedule: Q01DX009 (ip), vehicle: saline with Tween-80, higher = longer survival): 124 % of control; T/C (endpoint: median survival time, dose: 50.0 mg/kg/injection, schedule: Q01DX009 (ip), vehicle: saline, higher = longer survival): 116 % of control; T/C (endpoint: median survival time, dose: 100.0 mg/kg/injection, schedule: Q01DX009 (ip), vehicle: saline with Tween-80, higher = longer survival): 151 % of control; T/C (endpoint: median survival time, dose: 100.0 mg/kg/injection, schedule: Q01DX009 (ip), vehicle: saline, higher = longer survival): 100 % of control; T/C (endpoint: median survival time, dose: 200.0 mg/kg/injection, schedule: Q01DX009 (ip), vehicle: saline with Tween-80, higher = longer survival): 157 % of control and 168 % of control; T/C (endpoint: median survival time, dose: 400.0 mg/kg/injection, schedule: Q01DX009 (ip), vehicle: saline with Tween-80, higher = longer survival): 159 % of control; T/C (endpoint: median tumor weight (est.), dose: 50.0 mg/kg/injection, schedule: Q01DX009 (ip), vehicle: Klucel (hydroxypropylcellulose) (HPC), higher = larger tumour): 12 % of control and 30 % of control; T/C (endpoint: median tumor weight (est.), dose: 50.0 mg/kg/injection, schedule: Q01DX009 (ip), vehicle: saline with Tween-80, higher = larger tumour): 26 % of control; T/C (endpoint: median tumor weight (est.), dose: 100.0 mg/kg/injection, schedule: Q01DX009 (ip), vehicle: Klucel (hydroxypropylcellulose) (HPC), higher = larger tumour): 37 % of control; T/C (endpoint: median tumor weight (est.), dose: 100.0 mg/kg/injection, schedule: Q01DX009 (ip), vehicle: saline with Tween-80, higher = larger tumour): 41 % of control; T/C (endpoint: median tumor weight (est.), dose: 200.0 mg/kg/injection, schedule: Q01DX009 (ip), vehicle: Klucel (hydroxypropylcellulose) (HPC), higher = larger tumour): 22 % of control; T/C (endpoint: median tumor weight (est.), dose: 200.0 mg/kg/injection, schedule: Q01DX009 (ip), vehicle: saline with Tween-80, higher = larger tumour): 12 % of control

Question: With `O=C(O)CCC(=O)O` as the compound, how does the T/C (endpoint: median survival time, dose: 5.0 mg/kg/injection, schedule: Q01DX009 (ip), vehicle: water, higher = longer survival) read?
Answer: 117 % of control and 102 % of control

Question: What about the T/C (endpoint: median survival time, dose: 40.0 mg/kg/injection, schedule: Q01DX009 (ip), vehicle: water, higher = longer survival) of the same compound?
Answer: 114 % of control [middle of 6 runs]

Question: And the T/C (endpoint: median survival time, dose: 80.0 mg/kg/injection, schedule: Q01DX009 (ip), vehicle: water, higher = longer survival)?
Answer: 97 % of control [middle of 5 runs]

Question: What about the T/C (endpoint: median survival time, dose: 160.0 mg/kg/injection, schedule: Q01DX009 (ip), vehicle: water, higher = longer survival) of the same compound?
Answer: 96 % of control [middle of 4 runs]

Question: Which results are given for `CC1(C)N=C(N)N=C(N)N1c1ccc(OCCOc2ccc(S(=O)(=O)F)cc2)c(Cl)c1`?
Answer: T/C (endpoint: median survival time, dose: 12.5 mg/kg/injection, schedule: Q04DX003 (ip), vehicle: saline, higher = longer survival): 104 % of control; T/C (endpoint: median survival time, dose: 25.0 mg/kg/injection, schedule: Q04DX003 (ip), vehicle: saline, higher = longer survival): 104 % of control; T/C (endpoint: median survival time, dose: 100.0 mg/kg/injection, schedule: Q04DX003 (ip), vehicle: saline, higher = longer survival): 109 % of control
